Measured values from US20250304700A1, “ANTI-BLOOD DENDRITIC CELL ANTIGEN 2 ANTIBODIES AND USES THEREOF” (Biogen MA Inc., priority 2012, published 2025).

Assays:
[1] = system: bulk polyclonal human IgG; assay: Cross-interaction chromatography (CIC); type: physicochemical
Source text: Cross-interaction chromatography (CIC) is a high throughput method for preliminary assessment of the stickiness of mAb candidates (Jacobs et al., Pharm Res., 27 (1): 65-71 (2010)). In this method, bulk polyclonal human IgG is chemically coupled to an NHS-activated chromatography resin.

[2] = system: BDCA2 on cynomolgus plasmacytoid dendritic cells; assay: Flow cytometric whole blood assay, BIIB059 binding to cynomolgus pDCs; set-up: species or system cynomolgus monkey; details: Alexa647 labeled BIIB059, on ice
Method: Cynomolgus monkey (Toxikon, Inc, Bedford, MA) or human peripheral blood (Biogen Idec) were collected in sodium heparin collection tubes and maintained at room temperature. A FACS staining antibody cocktail for identifying pDCs was added to each whole blood aliquot, incorporating CD20, CD14, CD123 and HLA-DR antibodies. […] Blood was incubated on ice, protected from light, for 30 min. After 30 min., each 500 μL aliquot of whole blood (cyno) or 100 μL (human) was treated with 10 mL (cyno) or 2 mL (human) of 1× Easy Lyse Buffer (Leinco Technologies) that had been incubated at 37° C. for at least one hour. After a 10-15 min. incubation at room temperature, samples were centrifuged at 1400 rpm for 5 min. The supernatant was decanted, leaving only a pellet of white blood cells (WBC). Each WBC pellet was washed with 5 mL of FACS buffer (1% BSA+0.002% NaAzide+1 mM CaCl2)+1 mM MgCl2 in PBS), and centrifuged at 1400 rpm for 5 min. The supernatant was decanted, and each WBC pellet was resuspended in 200 μL of FACS buffer and transferred to a 96-well round bottom plate (Fisher Scientific). The plate was centrifuged at 1400 rpm for 5 min. The supernatant was dumped out of the plate, and each WBC pellet was washed with 200 μL of FACS buffer. […] Each WBC pellet was resuspended in 250 μL of FACS buffer and fluorescence intensity measured on a LSRII 4-color FACS machine. […]

[3] = system: TLR9-induced IFNα production by PBMC; assay: PBMC assay, TLR9-induced IFNα production; type: cell-based, human; details: 1 or 5 μM CpG-A, 18 hours
Method: PBMCs from heparinized venous blood of healthy donors were isolated by discontinuous gradient centrifugation over Ficoll, washed in PBS and re-suspended in complete culture medium (RPMI with 3% FBS). […] The plates were incubated overnight (18 hours) at 37° C., and the supernatants were collected for evaluation in IFNα ELISA assays (PBL InterferonSource). The assays were performed according to the manufacturer's protocol.
pDCs are the major producers of IFN in response to TLR7 and TLR9 stimulation. pDCs can produce thousand-fold more IFN than any other cell type. […] The plates were incubated overnight (18 hours) at 37° C. and 5% CO2. Supernatants were collected for evaluation in IFNα ELISA assays.

[4] = system: type I IFN transcription in purified pDCs; assay: Q-PCR of type I IFN genes in CpG-A stimulated purified pDCs; type: cell-based, human; details: 5 μM CPG-A, 18 hours
Method: pDCs were purified using a two-step magnetic bead separation procedure (MACS kit, Miltenyi Biotec). […] Total assay volume was 200 μl/well. Plates were incubated for 18 hours at 37° C., and RNA was extracted from cells using Trizol reagent (Invitrogen corporation) and further purified using an RNeasy mini column (Qiagen Sciences). All primers and probes were purchased from Applied Biosystems Inc. Relative transcript quantities were determined for each sample by comparison to the oligonucleotide standard curve using Sequence Detection Software (Applied Biosystems Inc.) and normalized to a control (GAPDH).

[5] = system: TLR9-induced cytokines and chemokines by purified pDCs; assay: ELISA/multiplex of cytokines from CpG-A stimulated purified pDCs; type: cell-based, human
Method: Shown in FIG. 17 are the amounts of secreted IFNα and IL-6 measured from a representative donor of three tested healthy donors.
BDCA2 ligation suppresses the ability of pDCs to produce type I IFNs in response to TLR ligands (see FIG. 16). […] Specifically, pDCs from human healthy donors were isolated using a two-step magnetic bead separation procedure (MACS kit, Miltenyi Biotec). […] The plates containing pDCs were incubated for 18 hours at 37° C. and supernatants collected for use in ELISA or multiplex assays to measure concentrations of inflammatory cytokines and chemokines.

[6] = system: TLR3-induced IFNα production by PBMC; assay: TLR3-induced IFNα production by PBMC; type: cell-based, human; details: 1 μM Poly I:C, BIIB059 10 μg/mL to 0.5 ng/ml
Method: This experiment was performed to determine whether other cell types triggered with different TLR ligands are still able to produce type I IFN even in the presence of BIIB059. […] PBMC from human healthy donors were stimulated with poly: IC, which is a TLR3 ligand that can potently induce type I IFN predominantly by monocytes. […] The plates were incubated overnight (18 hours) at 37° C. and 5% CO2. 200 μL of the supernatants were collected for evaluation of IFNα levels by ELISA.

[7] = system: CD62L on the surface of human pDCs; assay: CD62L surface expression on pDCs by flow cytometry; type: cell-based; details: whole blood, 1 hour at 37° C., no stimulation
Method: The MFI of CD62L was determined by gating on pDCs as defined by CD14−, CD20−, HLA-DR+ and CD123+.
Metalloproteinase are known to induce CD62L shedding from the surface of immune cells. […] The surface expression of CD62L was assayed by flow cytometry. GM6001 inhibited the BIIB059-mediated down-modulation CD62L in a dose dependent manner (FIG. 45).

[8] = 5 μM CPG-A, increasing concentrations of BIIB059

Sequence of BDCA2 on cynomolgus plasmacytoid dendritic cells (as listed by the source): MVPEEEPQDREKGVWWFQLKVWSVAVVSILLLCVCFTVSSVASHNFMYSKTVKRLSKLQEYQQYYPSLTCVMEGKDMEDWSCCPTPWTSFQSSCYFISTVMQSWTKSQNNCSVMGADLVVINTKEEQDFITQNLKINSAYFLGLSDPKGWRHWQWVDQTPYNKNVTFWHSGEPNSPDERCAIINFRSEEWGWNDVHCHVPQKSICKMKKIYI

With “24F4S: hu24F4 H4/L1 with C95S light chain; differs from BIIB059 by 1 amino acid residue” the Solubility ([1]; CIC data table) was “good”, the Rt-Test ([1]; IgG-derivatized column) was 9.3 and the “K′” value ([1]; higher K′ values may indicate lower solubility) was 0.022. It also gave a Rt-Blank ([1]; non-derivatized column) of 9.1.

For “BIIB059: humanized IgG1 anti-BDCA2 antibody, mature heavy chain SEQ ID NO: 4 and mature light chain SEQ ID NO: 3”, the “EC50 of binding to pDCs” value [2] was 1-2 μg/mL, the “average IC50, inhibition of TLR9-induced IFNα production” value ([3]; PBMC from SLE patients) was 0.03 ± 0.01 µg/mL and the “average IC50, inhibition of TLR9-induced IFNα production” value ([3]; PBMC from healthy donors) was 0.04 ± 0.05 µg/mL. For the same substance, the “transcription of type I IFNs” value [4] was “inhibited transcription of all type I IFNs tested”, the “TLR9-induced IFNα, TNFα, IL-6, CCL3, CCL4, CCL5” value ([5]; 1 μM CPG-A, 10 μg/mL antibody, 18 hours) was “potently inhibited” and the IFNα production [5, 8] was “potently inhibited”. The IL-6 production [5, 8] was “greatly reduced”, the “ability to inhibit CPG-A-induced IFNα by pDCs” value ([5]; BIIB059 compared with 24F4A-Agly) was “undistinguishable” and the “TLR3-induced IFNα production” value [6] was “did not impact”. For the same substance, the “CD62L expression on the surface of pDCs” value [7] was “dose-dependent decrease”.
